These results are taken from paper PMC7307922 (Journal of Medicinal Chemistry, 2020).

≈ marks a conversion by molar mass, not a printed value. Where “and” joins values, the source holds several entries; their conditions need not be identical. Identical values can stand only once. Like-named read-outs stand apart in the source and are kept apart here.

For series [1], the target named is T1, hFFA3 (Homo sapiens, UniProt O14843).
T1 sequence (O14843 1-346): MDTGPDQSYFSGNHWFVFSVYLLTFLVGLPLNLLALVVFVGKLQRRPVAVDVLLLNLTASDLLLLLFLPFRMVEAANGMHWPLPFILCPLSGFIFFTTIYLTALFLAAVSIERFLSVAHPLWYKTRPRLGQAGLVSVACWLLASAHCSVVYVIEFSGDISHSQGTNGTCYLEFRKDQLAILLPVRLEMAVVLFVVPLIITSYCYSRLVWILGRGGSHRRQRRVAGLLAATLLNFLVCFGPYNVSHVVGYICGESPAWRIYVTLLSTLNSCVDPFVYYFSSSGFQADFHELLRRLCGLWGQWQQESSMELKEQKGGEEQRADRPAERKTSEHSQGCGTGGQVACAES
In words: cell-based. The following applies: for Emax: HEK293, read-out: cAMP Emax; for cAMP pEC50: hFFA3, compound alone, mean of ≥3 independent experiments ± standard error. On the procedure: (§1) The ligands were initially screened in a human FFA3-dependent [^35S]GTPγS binding assay as this assay reflects receptor-mediated activation of Gi/o proteins and is known to generally correlate well with ligand affinity.[30] Analogues of particular interest were tested further in a cAMP inhibition assay as this is an important downstream effect of Gi-activation. […] It is furthermore performed in whole cells, is more downstream, includes G protein signal amplification, and therefore better reflects a more natural ligand–receptor response.
HEK293 Flp-In T-Rex cells stably transfected with FFA3-eYFP receptors were incubated overnight with doxycycline to induce expression, then harvested, and cryopreserved. On the day of each experiment, cells were thawed and resuspended in stimulation buffer. Assays were carried out using a 384-well plate format with 3000 cells/well using the CisBio cAMP GS dynamic kit as per manufacturer’s protocol. Compounds were tested for the ability to inhibit 0.3 μM forskolin-induced cAMP production after co-incubation for 1 h. Reactions were measured using a PHERAstar FS plate reader (BMGLabtech, Aylesbury, UK).

Series [2] is described as follows: Kinetic aqueous solubility in PBS pH 7.4. The format is physicochemical. The following applies: for solubility: pH 7.4, read-out: Aq. solub. The method, then:
(§2) Solubility and log D7.4 measurements were performed in accordance to the previously published procedures.[35]

A short description of series [3]: log D7.4 measurement. The format is physicochemical. Conditions: pH 7.4; read-out: logD7.4. The method, then:
as §2

Series [4] in a line: Stability toward mouse liver microsomes. Conditions: remaining after 40 min incubation with MLMs. On the procedure: The study was performed by Bienta (www.bienta.net). Mouse hepatic microsomes were isolated from pooled and perfused livers of male BALB/c mice (n = 50). Isolation was performed according to the standard protocol.[36]
Microsomal incubations were carried out in 96-well plates in 5 aliquots of 40 μL each (one for each time point). Liver microsomal incubation medium comprised PBS (100 mM, pH 7.4), MgCl2 (3.3 mM), NADPH (3 mM), glucose-6-phosphate (5.3 mM), and glucose-6-phosphate dehydrogenase (0.67 units/mL) with 0.42 mg of liver microsomal protein per ml. In the control reactions, the NADPH-cofactor system was substituted with PBS. […] Each reaction was performed in duplicates. Five time points over 40 min were analyzed. The reactions were stopped by adding 12 volumes of 90% acetonitrile–water to incubation aliquots, followed by protein sedimentation by centrifuging at 5500 rpm for 3 min. […]. Supernatants were analyzed using HPLC-MS/MS on an API 3000 PE instrument.

In series [5] the target is T1, hFFA3. In words: biochemical. Conditions: for GTPγS pEC50: hFFA3, mean of ≥3 independent experiments ± standard error; for Emax: read-out: GTPγS Emax. The method, then:
as §1
Membranes were isolated from Flp-In T-REx HEK293 cells treated with 100 ng/mL doxycycline to induce receptor expression. Cells were washed with ice-cold phosphate-buffered saline and removed from dishes by scraping before being centrifuged for 5 min at 4 °C, 3000 rpm. Pellets were resuspended in TE buffer (75 mM Tris–HCl, 5 mM EDTA; pH 7.5) with the addition of a protease inhibitor mixture (Roche Applied Science, West Sussex, UK). This was then homogenized with a 5 mL hand-held homogenizer and subsequently centrifuged at 1500 rpm for 5 min at 4 °C, from which the supernatant was collected and further centrifuged at 50 000 rpm for 30 min at 4 °C. The resulting pellet was resuspended in TE buffer, and the protein content was measured using a BCA protein assay kit (Pierce, Fisher Scientific, Loughborough, UK).
Reactions were initiated with the addition of [^35S]GTPγS at 50 nCi per tube; reactions were terminated after 1 h of incubation at 25 °C by rapid filtration through GF/C glass filters using a 24-well Brandel cell harvester (Alpha Biotech, Glasgow, UK). Unbound radioligand was removed from filters by washing three times with ice-cold wash buffer (50 mM Tris–HCl, pH 7.4, and 10 mM MgCl2), and [^35S]GTPγS binding was determined by liquid scintillation spectrometry.

One may read the Emax as the maximal effect, on the per cent scale that the assay sets. Regarding `CCCC1C(C(=O)Nc2cc(C)ccc2Cl)=C(C)NC2=C1C(=O)CCC2` (centres unmarked) [Compound 60, N-(2-Chloro-5-methylphenyl)-2-methyl-5-oxo-4-propyl-1,4,5,6,7,8-hexahydroquinoline-3-carboxamide], in series [1], the Emax was 103% and the “cAMP pEC50” value is 6.19 ± 0.10. Besides, the solubility in series [2] (phosphate buffered saline) is 145 µM (≈ 54.1 µg/mL). For the same compound, in series [3], the logD at 24 h is 3.57.
As for `CC1=C(C(=O)Nc2cc(Cl)ccc2Cl)C(c2nccs2)C2=C(CCCC2=O)N1` (centres unmarked) [Compound 47, N-(2,5-Dichlorophenyl)-2-methyl-5-oxo-4-(thiazol-2-yl)-1,4,5,6,7,8-hexahydroquinoline-3-carboxamide], the figures for the solubility in series [2] and in series [2] (phosphate buffered saline) were 1 µM (≈ 0.434 µg/mL) and 2 µM (≈ 0.869 µg/mL), respectively. The logD at 24 h in series [3] is 3.39. For the same compound, the “MLM (%) remaining” value in series [4] came out at 2%.
Turning to `CC1=C(C(=O)Nc2cc(Cl)ccc2Cl)C(c2cocn2)C2=C(CCCC2=O)N1` (centres unmarked) [Compound 50, N-(2,5-Dichlorophenyl)-2-methyl-4-(oxazol-4-yl)-5-oxo-1,4,5,6,7,8-hexahydroquinoline-3-carboxamide], in series [1], the Emax is 97% and the “cAMP pEC50” value is recorded as 5.78 ± 0.03. In addition, the “increase of solubility relative to 16” value in series [2] (kinetic solubility) is on record as > 10 fold. In series [2] (phosphate buffered saline), the solubility is 62 µM (≈ 25.9 µg/mL). Moreover, the logD at 24 h in series [3] came out at 2.84.
Take `CC1=C(C(=O)Nc2cc(Cl)ccc2Cl)C(c2ncco2)C2=C(CCCC2=O)N1` (centres unmarked) [Compound 51, N-(2,5-Dichlorophenyl)-2-methyl-4-(oxazol-2-yl)-5-oxo-1,4,5,6,7,8-hexahydroquinoline-3-carboxamide]: in series [1], the Emax was 95% and the “cAMP pEC50” value was 6.72 ± 0.05. In addition, the solubility in series [2] (phosphate buffered saline) was found to be 1 µM (≈ 0.418 µg/mL). For the same compound, in series [3], the logD at 24 h was 2.59. The “MLM (%) remaining” value in series [4] turned out to be 12%.
`CC1=C(C(=O)Nc2cc(Cl)ccc2Cl)C(C2CC2)C2=C(CCCC2=O)N1` (centres unmarked) [Compound 62, 4-Cyclopropyl-N-(2,5-dichlorophenyl)-2-methyl-5-oxo-1,4,5,6,7,8-hexahydroquinoline-3-carboxamide]: the solubility in series [2] (phosphate buffered saline) was found to be 5 µM (≈ 1.96 µg/mL). Further, the logD at 24 h in series [3] is 3.73. In addition, in series [4], the “MLM (%) remaining” value was 1−2% and 1%.
For the compound `CCCC1C(C(=O)Nc2cc(OC)ccc2Cl)=C(C)NC2=C1C(=O)CCC2` (centres unmarked) [Compound 61, N-(2-Chloro-5-methoxyphenyl)-2-methyl-5-oxo-4-propyl-1,4,5,6,7,8-hexahydroquinoline-3-carboxamide], in series [1], the Emax was 96% and the “cAMP pEC50” value stood at 5.96 ± 0.08. The solubility in series [2] (phosphate buffered saline) was found to be 157 µM (≈ 61.1 µg/mL). Moreover, the logD at 24 h in series [3] turned out to be 3.07.
`CCCC1C(C(=O)Nc2ccccc2Cl)=C(C)NC2=C1C(=O)CCC2` (centres unmarked) [Compound 58, N-(2-Chlorophenyl)-2-methyl-5-oxo-4-propyl-1,4,5,6,7,8-hexahydroquinoline-3-carboxamide]: in series [1], the Emax was 105% and the “cAMP pEC50” value is 6.06 ± 0.05. The “increase of solubility compared to 57” value in series [2] (kinetic solubility) was 4–5 fold. Further, the solubility in series [2] (phosphate buffered saline) is 169 µM (≈ 60.6 µg/mL). Further, the logD at 24 h in series [3] worked out at 3.22.
As to `CC1=C(C(=O)Nc2cc(Cl)ccc2Cl)C(c2cncs2)C2=C(CCCC2=O)N1` (centres unmarked) [Compound 48, N-(2,5-Dichlorophenyl)-2-methyl-5-oxo-4-(thiazol-5-yl)-1,4,5,6,7,8-hexahydroquinoline-3-carboxamide], in series [1], the Emax was 97% and the “cAMP pEC50” value came to 5.75 ± 0.03. The solubility in series [2] (phosphate buffered saline) was 1 µM (≈ 0.434 µg/mL). Moreover, the logD at 24 h in series [3] was found to be 3.23.
With `CCCC1C(C(=O)Nc2ccccc2C)=C(C)NC2=C1C(=O)CCC2` (centres unmarked) [Compound 35, 2-Methyl-5-oxo-4-propyl-N-(o-tolyl)-1,4,5,6,7,8-hexahydroquinoline-3-carboxamide], in series [1], the Emax is 101% and the “cAMP pEC50” value is reported as 5.92 ± 0.01. Besides, the “PAM pEC50” value in series [1] (cAMP assay in the presence of 1 μM propionate) is listed as 6.16 ± 0.10. For the same compound, in series [2] (phosphate buffered saline), the solubility came to 199 µM (≈ 67.4 µg/mL). In addition, the logD in series [3] is 2.64. Further, in series [4], the “MLM (%) remaining” value was 23%.
On to `CCCC1C(C(=O)Nc2cccc(Cl)c2)=C(C)NC2=C1C(=O)CCC2` (centres unmarked) [Compound 59, N-(3-Chlorophenyl)-2-methyl-5-oxo-4-propyl-1,4,5,6,7,8-hexahydroquinoline-3-carboxamide], for which, in series [1], the Emax is 105% and the “cAMP pEC50” value stood at 5.97 ± 0.05. Further, in series [2] (kinetic solubility), the “increase of solubility compared to 57” value was 4–5 fold. In series [2] (phosphate buffered saline), the solubility came to 137 µM (≈ 49.2 µg/mL). Further, the logD at 24 h in series [3] stood at 3.77.
Consider `CC1=C(C(=O)Nc2ccccc2C)C(c2ccoc2)C2=C(CCCC2=O)N1` (centres unmarked) [Compound 2, reference compound], for which, in series [5], the “GTPγS pEC50” value worked out at 5.24 ± 0.08 and the Emax is 135%. For the same compound, in series [1], the Emax was 97% and the “cAMP pEC50” value is listed as 6.27 ± 0.03. Further, the “increased potency in cAMP assay versus GTPγS assay” value in series [1] (cAMP vs GTPγS data) came to 10 fold.
Regarding `CC1=C(C(=O)Nc2cc(Cl)ccc2Cl)C(c2cscn2)C2=C(CCCC2=O)N1` (centres unmarked) [Compound 49, N-(2,5-Dichlorophenyl)-2-methyl-5-oxo-4-(thiazol-4-yl)-1,4,5,6,7,8-hexahydroquinoline-3-carboxamide], in series [1], the Emax is 95% and the “cAMP pEC50” value came to 5.71 ± 0.08. Also, the solubility in series [2] (phosphate buffered saline) is < 1 µM. Besides, the logD at 24 h in series [3] was 3.28.
In the case of `COc1ccccc1NC(=O)C1=C(C)NC2=C(C(=O)CCC2)C1c1ccco1` (centres unmarked) [Compound 15, 4-(Furan-2-yl)-N-(2-methoxyphenyl)-2-methyl-5-oxo-1,4,5,6,7,8-hexahydroquinoline-3-carboxamide], in series [5], the “GTPγS pEC50” value is 4.71 ± 0.28 and the Emax is 124%. In addition, in series [1], the Emax is 99% and the “cAMP pEC50” value is reported as 6.43 ± 0.03. For the same compound, the “increased potency in cAMP assay versus GTPγS assay” value in series [1] (cAMP vs GTPγS data) was determined as 50 fold.
For orientation: EC50 means the concentration giving half of the maximal effect. Higher therefore signals weaker potency. In the case of `CC1=C(C(=O)Nc2ccccc2I)C(CC(C)C)C2=C(CCCC2=O)N1` (centres unmarked) [Compound 19, N-(2-Iodophenyl)-4-isobutyl-2-methyl-5-oxo-1,4,5,6,7,8-hexahydroquinoline-3-carboxamide], in series [5], the “GTPγS pEC50” value was 5.41 ± 0.15 and the Emax was 129%. Besides, in series [1], the response was half-maximal at 2690 nM (EC50) and the Emax is 89%.
For the compound `CC1=C(C(=O)Nc2cccc(C)c2C)C(CC(C)C)C2=C(CCCC2=O)N1` (centres unmarked) [Compound 18, N-(2,3-Dimethylphenyl)-4-isobutyl-2-methyl-5-oxo-1,4,5,6,7,8-hexahydroquinoline-3-carboxamide], in series [5], the “GTPγS pEC50” value was 5.26 ± 0.16 and the Emax is 88%. Also, in series [1], the Emax is 97% and the “cAMP pEC50” value came out at 4.98 ± 0.11. Moreover, in series [1] (cAMP vs GTPγS data), the “lower potency in cAMP assay versus GTPγS assay” value stood at 2 fold.
